Values quoted from earlier work, collected in patent US12465592B2, “Structured encapsulated silicon-containing particles” (SISAF LIMITED, priority 2019, dated 2025).

For `Clc1ccc(COC(Cn2ccnc2)c2ccc(Cl)cc2Cl)c(Cl)c1` (stereo not shown) [Miconazole], the aqueous solubility is listed as under 1 µg/mL.
